According to US20040091460A1, “Preparation of spheroids” (priority 2000, published 2004):
Entries after “also recorded” stand apart in the source; their conditions may differ.

What was measured:
Format in all cases: cell-based
rat liver spheroids [1] = experiment: Intoxification of liver spheroids: spheroid damage / functional change observed
Protocol: (§1) Liver spheroids were prepared from the liver of male Wistar rats by a two-step collagenase perfusion method described by Seglen P. O. ((1976). Preparation of isolated rat liver cells. Methods Cell. Biol. 13, 29-38) and modified by Lazar, A.; Peshwa, M. V., Wu, F. J., Chi, C. M., Cerra, F. B., and Hu, W. S. (1995). Extended liver-specific functions of procirne hepatocyte spheroids entrapped in collagen gel. In Vitro Cell Biol Anim. 31, 340-346). Viability of the isolated liver cells was determined by tyrpan blue dye exclusion i.e. an aliquot of isolated liver cells was mixed with an equal volume of trypan blue dye (1.0% w/v in isotonic saline) and incubated at room temperature for a minimum period of 5 minutes. Only isolated liver cell preparations with viability above 80% were used to prepare liver spheroids. The cell suspension was diluted with culture medium (hepatocyte medium supplemented with 10% FCS, […] L-glutamine, 2 ng/ml insulin, 100 U/ml penicillin and 100 μg/ml streptomycin sulfate) to give a cell density of 5×10^5 cells/ml. The diluted cell suspension was dispersed into 6-well plates, 3 ml/well. The plates were incubated at 37° C., in a 5% CO2 incubator on a gyrotatory shaker (New Brunswick) at an initial rotation speed of 85 rpm for the first 24 hr and 77 rpm thereafter. […]

rat liver spheroids [2] = experiment: Lactate dehydrogenase (LDH) leakage of liver spheroids after GalN exposure
Protocol: as §1, with “thereafter. The plates were rotated at this speed for the duration of the study (up to 45 days, but typically 2-10 days). 1.5 ml of old medium was replaced with 2.0 ml fresh medium for each well every other day. Media exchange was carried out over the duration of the study (up to 45 days, but typically 2-10 days).” for “thereafter.”
LDH in the media was assayed using the method developed by Korzeniewski and Callewaert (Korzeniwski, C., and Callewaert, D. M. (1983). An enzyme-release assay for natural cytotoxicity. J Immun. Meth. 64, 313-320). […] The resultant absorbance at 490 mn was monitored for 15 min, at 10 sec intervals on a microplate reader (Multiscan RC, Labsystem).

rat liver spheroids [3] = experiment: Glutathione content of liver spheroids after GalN exposure (fluorimetric OPT method); details: 24 hr exposure
Protocol: as §1, with “cells/ml.” for “cells/ml. The diluted cell suspension was dispersed into 6-well plates, 3 ml/well. The plates were incubated at 37° C., in a 5% CO2 incubator on a gyrotatory shaker (New Brunswick) at an initial rotation speed of 85 rpm for the first 24 hr and 77 rpm thereafter.”
Glutathione levels in spheroids were determined by the fluorimetric method (Hissin P. J., and Hilf (1976). A fluorimetric method for the determination of oxidised and reduced glutathione in tissues. Anal. Biochem. 74, 214-226). […] Absorbance was read on a fluorimeter at excitation wavelength 350 nm and emission wavelength 420 nm.

rat liver spheroids [4] = experiment: Total protein content of rat liver spheroids after GalN exposure (Bradford); details: 24 hr exposure, vs control
Protocol: (§2) Liver spheroids were prepared from the liver of male Wistar rats by a two-step collagenase perfusion method described by Seglen P. O. ((1976). Preparation of isolated rat liver cells. Methods Cell. Biol. 13, 29-38) and modified by Lazar, A.; Peshwa, M. V., Wu, F. J., Chi, C. M., Cerra, F. B., and Hu, W. S. (1995). Extended liver-specific functions of procirne hepatocyte spheroids entrapped in collagen gel. In Vitro Cell Biol Anim. 31, 340-346). Viability of the isolated liver cells was determined by tyrpan blue dye exclusion i.e. an aliquot of isolated liver cells was mixed with an equal volume of trypan blue dye (1.0% w/v in isotonic saline) and incubated at room temperature for a minimum period of 5 minutes. Only isolated liver cell preparations with viability above 80% were used to prepare liver spheroids. […]
Spheroids were homogenized in homogenisation buffer containing NaH2PO42H2O, 2 mM; Na2HPO4, 2 mM; EDTA, 0.5 mM; and NaCl, 145 mM. Total protein was assessed according to the method developed by Bradford (1976). […] The protein content was determined by Micro Protein Kit (Sigma, Cat. No. 610-A). […] Absorbance was read on a microplate reader (Multiscan RC, Labsystem) at 595 nm.

rat liver spheroids [5] = experiment: Albumin synthesis of liver spheroids after GalN exposure (BCG albumin kit, medium); details: 24 hr exposure
Protocol: as §1, with “ml/well.” for “ml/well. The plates were incubated at 37° C., in a 5% CO2 incubator on a gyrotatory shaker (New Brunswick) at an initial rotation speed of 85 rpm for the first 24 hr and 77 rpm thereafter.”
Albumin concentration in the medium was determined by Albumin Reagent Kit (BCG, Sigma). […] Absorbance was read on a microplate reader (Multiscan RC, Labsystems) at 630 nm.

rat liver spheroids [6] = experiment: Urea synthesis of liver spheroids after GalN exposure (Urea Nitrogen Kit, medium)
Protocol: as §2
Urea concentration in the media was determined using a Urea Nitrogen Kit (Cat. 640-A, Sigma). The method was modified in order to be suitable for a 96-well plate format and assays using a microplate reader. […] Total ammonium nitrogen of each sample was determined by adding 25 μl urease solution to each well followed by 10 μl of diluted medium. […] A blue colour developed and the absorbance was read on a microplate reader (Multiscan RC, Labsystems) at 590 nm. Free non-urea nitrogen was determined by adding 25 μl PBS without urease followed by 10 μl medium. […]

[7] = 0-40 mM GalN, trend over concentration

**Q.** What does the source list for `N[C@H]1C(O)O[C@H](CO)[C@H](O)[C@@H]1O` (stereo partly drawn) [GalN, D-Galactosamine]?
**A.** functional change of liver spheroids (rat liver spheroids [1]; 20 mM GalN): caused a functional change; spheroid damage / cell death (rat liver spheroids [1]; 40 mM GalN (highest concentration), 24 hr exposure): caused acute cell death; LDH leakage (rat liver spheroids [2]; [7]): concentration-dependent increase; LDH leakage (rat liver spheroids [2]; 10 mM GalN, 24 hr, p<0.05): significantly increased; LDH leakage (rat liver spheroids [2]; 20 and 40 mM GalN, 4 hours after exposure, vs control, p<0.05): significant increase; glutathione content (rat liver spheroids [3]; 20 mM and lower GalN): did not decrease; glutathione content (rat liver spheroids [3]; 40 mM GalN, p<0.05): significantly decreased; total protein content of spheroids (rat liver spheroids [4]; 20 mM or lower GalN): not affected; also recorded: did not decrease; total protein content of spheroids (rat liver spheroids [4]; 40 mM GalN, p<0.05): significantly decreased; albumin synthesis (rat liver spheroids [5]; [7]): concentration-dependent decrease; albumin synthesis (rat liver spheroids [5]; 40 mM GalN, vs control, p<0.05): decrease was significant; urea synthesis (rat liver spheroids [6]; 0-40 mM GalN, 24 hr after exposure, trend over concentration): concentration-dependent increase; synthetic rates of urea (rat liver spheroids [6]; 10 mM or higher GalN, 24 hr, vs control, p<0.05): significantly higher
